B1: ChsE1 (Rv3544c), N-terminal His6 tagged, expressed from the cistronic construct pigr5 (enzyme)
chain: MDFDPTAEQQAVADVVTSVLERDISWEALVCGGVTALPVPERLGGDGVGLFEVGALLTEVGRHGAVTPALATLGLGVVPLLELASAEQQDRFLAGVAKGGVLTAALNEPGAALPDRPATSFVGGRLSGTKVGVGYAEQADWMLVTADNAVVVVSPTADGVRMVRTPTSNGSDEYVMTMDGVAVADCDILADVAAHRVNQLALAVMGAYADGLVAGALRLTADYVANRKQFGKPLSTFQTVAAQLAEVYIASRTIDLVAKSVIWRLAEDLDAGDDLGVLGYWVTSQAPPAMQICHHLHGGMGMDVTYPMHRYYSTIKDLTRLLGGPSHRLELLGARCSLT

What was measured:
ChsE1-ChsE2 = ChsE1-ChsE2 (Mycobacterium tuberculosis, UniProt P71857+P71858)
[1] = molecular target: T1, ChsE2 (Rv3543c), tagless, expressed from the cistronic construct pigr5 (Mycobacterium tuberculosis H37Rv, UniProt P71858 1-387); experiment: pull-down
T1 sequence: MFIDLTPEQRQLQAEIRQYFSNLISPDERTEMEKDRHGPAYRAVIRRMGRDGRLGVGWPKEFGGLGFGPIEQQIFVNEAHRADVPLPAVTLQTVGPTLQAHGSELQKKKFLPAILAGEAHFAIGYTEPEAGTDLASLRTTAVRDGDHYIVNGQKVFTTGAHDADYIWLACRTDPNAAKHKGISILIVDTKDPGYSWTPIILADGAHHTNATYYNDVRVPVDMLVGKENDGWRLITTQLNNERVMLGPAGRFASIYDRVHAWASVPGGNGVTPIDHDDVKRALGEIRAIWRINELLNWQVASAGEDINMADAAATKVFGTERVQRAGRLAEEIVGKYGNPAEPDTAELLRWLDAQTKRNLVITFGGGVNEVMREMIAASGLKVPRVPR

Molecule	LC/UV/MS of released flavin (m/z 786), UV-visible spectrum (ChsE1-ChsE2)	binding result [1]
Cc1cc2nc3c(=O)[nH]c(=O)nc-3n(C[C@H](O)[C@H](O)[C@H](O)COP(=O)(O)OP(=O)(O)OC[C@H]3O[C@@H](n4cnc5c(N)ncnc54)[C@H](O)[C@@H]3O)c2cc1C [FAD]	ChsE1-ChsE2 is isolated as a holoprotein with FAD cofactor	–
B1	–	binds

From publication PMC3726044 (Biochemistry, 2013)
